Experimental data as given in ChEMBL document CHEMBL1133730 (J Med Chem, 2000).

Tests used:
[1] = biological target: T1, Adenosine receptor A1 (Rattus norvegicus) (UniProt P25099); assay: Maximum stimulation against adenosine A1 receptor of rat cerebral cortical membrane
T1 sequence (whole entry): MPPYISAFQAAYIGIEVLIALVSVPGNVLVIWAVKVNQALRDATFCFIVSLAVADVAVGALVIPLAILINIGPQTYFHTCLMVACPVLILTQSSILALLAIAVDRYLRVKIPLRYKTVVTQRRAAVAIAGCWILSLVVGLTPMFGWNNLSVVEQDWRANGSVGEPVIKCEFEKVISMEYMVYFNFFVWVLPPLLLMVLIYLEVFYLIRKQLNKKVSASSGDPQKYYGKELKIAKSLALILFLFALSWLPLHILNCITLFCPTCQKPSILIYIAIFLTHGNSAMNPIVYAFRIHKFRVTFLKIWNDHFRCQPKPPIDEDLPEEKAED

[2] = biological target: T2, Adenosine receptor A1 (Homo sapiens) (UniProt P30542); assay: Maximum stimulation against human adenosine A1 receptor
T2 sequence (whole entry): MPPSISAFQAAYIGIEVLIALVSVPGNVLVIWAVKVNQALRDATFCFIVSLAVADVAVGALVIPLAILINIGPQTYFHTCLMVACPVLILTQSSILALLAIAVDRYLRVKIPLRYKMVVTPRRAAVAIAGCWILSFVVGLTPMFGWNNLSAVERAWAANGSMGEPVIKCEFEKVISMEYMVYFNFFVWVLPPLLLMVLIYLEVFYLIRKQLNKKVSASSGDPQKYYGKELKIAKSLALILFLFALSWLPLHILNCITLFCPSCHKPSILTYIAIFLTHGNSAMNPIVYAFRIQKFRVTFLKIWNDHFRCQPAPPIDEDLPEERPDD

[3] = biological target: T3, Adenosine receptor A2b (Homo sapiens) (UniProt P29275); assay: Displacement of [3H]ZM241,385 binding to human adenosine A2B receptor expressed in HEK cells at 100 uM; format: cell-based; settings: HEK293
T3 sequence (whole entry): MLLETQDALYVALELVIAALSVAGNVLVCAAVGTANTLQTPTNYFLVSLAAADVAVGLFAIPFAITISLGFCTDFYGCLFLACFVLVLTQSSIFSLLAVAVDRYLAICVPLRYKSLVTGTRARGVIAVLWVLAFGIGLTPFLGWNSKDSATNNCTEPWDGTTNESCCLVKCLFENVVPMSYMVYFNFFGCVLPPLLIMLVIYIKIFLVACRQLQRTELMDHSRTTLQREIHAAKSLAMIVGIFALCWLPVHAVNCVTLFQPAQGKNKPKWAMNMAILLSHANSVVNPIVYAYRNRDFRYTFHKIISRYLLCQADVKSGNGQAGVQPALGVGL

[4] = biological target: T4, Adenosine receptor A3 (Homo sapiens) (UniProt P0DMS8); assay: Maximum stimulation against human adenosine A3 receptor
T4 sequence (whole entry): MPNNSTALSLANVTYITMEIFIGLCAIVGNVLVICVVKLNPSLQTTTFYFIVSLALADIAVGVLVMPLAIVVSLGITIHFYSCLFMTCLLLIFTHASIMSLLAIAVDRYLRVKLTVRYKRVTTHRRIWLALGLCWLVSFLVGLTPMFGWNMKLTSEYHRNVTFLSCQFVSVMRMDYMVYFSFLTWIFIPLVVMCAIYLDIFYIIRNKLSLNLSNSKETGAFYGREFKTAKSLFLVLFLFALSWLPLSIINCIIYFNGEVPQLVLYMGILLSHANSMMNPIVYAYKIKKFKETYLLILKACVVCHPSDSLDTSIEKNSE

[5] = biological target: T5, Adenosine receptor A1 (Homo sapiens, UniProt P30542); assay: Stimulation of [35S]GTP-gamma-S, binding to human adenosine A1 receptor; format: functional
T5 sequence (P30542 whole entry): T2 sequence (whole entry)

[6] = biological target: T6, Adenosine receptor A3 (Homo sapiens, UniProt P0DMS8); assay: Displacement of [125I]- AB-MECA from human adenosine A3 receptor expressed in HEK cells; format: cell-based, HEK293
T6 sequence (P0DMS8 whole entry): T4 sequence (whole entry)

[7] = biological target: Adenosine receptors; A1 & A3 (Rattus norvegicus) (UniProt P25099+P28647); assay: Relative binding affinity for Adenosine A1 and A3 receptors; format: protein assay
[8] = biological target: T6, Adenosine receptor A3; assay: Stimulation of [35S]GTP-gamma-S, against human adenosine A3 receptor; format: functional
[9] = biological target: T7, Adenosine receptor A1 (Rattus norvegicus, UniProt P25099)
T7 sequence (P25099 whole entry): T1 sequence (whole entry)

[10] = biological target: Adenosine receptor A2a (Rattus norvegicus, UniProt P30543)
Sequence of Adenosine receptor A2a (Rattus norvegicus, UniProt P30543) (P30543 whole entry): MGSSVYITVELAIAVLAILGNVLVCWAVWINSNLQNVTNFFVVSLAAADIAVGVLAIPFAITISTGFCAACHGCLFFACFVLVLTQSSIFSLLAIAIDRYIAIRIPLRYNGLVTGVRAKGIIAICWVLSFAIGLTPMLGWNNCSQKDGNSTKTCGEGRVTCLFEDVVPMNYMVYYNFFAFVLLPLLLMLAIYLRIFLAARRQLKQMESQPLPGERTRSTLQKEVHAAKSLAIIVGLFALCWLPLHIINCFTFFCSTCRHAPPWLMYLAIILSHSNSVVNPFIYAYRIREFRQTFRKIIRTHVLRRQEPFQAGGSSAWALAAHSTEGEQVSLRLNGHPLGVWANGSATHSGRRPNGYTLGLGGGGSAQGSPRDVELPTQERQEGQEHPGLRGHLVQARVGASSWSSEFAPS

[11] = biological target: T7, Adenosine receptor A1; remark: listed apart in the source
[12] = biological target: T3, Adenosine receptor A2b (Homo sapiens); assay: Displacement of [3H]- ZM-241385 from human adenosine A2B receptor expressed in HEK cell at 50 uM; format: cell-based; settings: HEK293
[13] = biological target: T6, Adenosine receptor A3; assay: Displacement of [125I]- AB-MECA from human adenosine A3 receptor expressed in HEK cell in the absence of ADA; format: cell-based, HEK293
[14] = biological target: Adenosine receptor A2a (Homo sapiens, UniProt P29274); assay: Displacement of [3H]ZM241385 from human adenosine A2A receptor expressed in HEK cells.
Sequence of Adenosine receptor A2a (Homo sapiens, UniProt P29274) (P29274 whole entry): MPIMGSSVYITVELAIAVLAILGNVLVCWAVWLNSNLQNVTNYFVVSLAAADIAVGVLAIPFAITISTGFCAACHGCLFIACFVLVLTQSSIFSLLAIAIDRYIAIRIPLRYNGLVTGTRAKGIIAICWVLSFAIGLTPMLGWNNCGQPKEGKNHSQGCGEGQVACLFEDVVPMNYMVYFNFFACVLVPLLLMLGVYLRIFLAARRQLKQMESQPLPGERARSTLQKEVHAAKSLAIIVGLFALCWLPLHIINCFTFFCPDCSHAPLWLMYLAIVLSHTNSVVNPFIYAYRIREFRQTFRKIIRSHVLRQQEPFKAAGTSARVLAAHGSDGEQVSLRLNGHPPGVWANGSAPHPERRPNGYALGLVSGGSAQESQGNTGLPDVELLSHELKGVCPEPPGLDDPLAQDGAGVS

[15] = biological target: T1, Adenosine receptor A1 (Rattus norvegicus); assay: Displacement of [3H]R-PIA from adenosine A1 receptor in rat brain membranes at 100 uM; format: cell membranes
[16] = biological target: T8, Adenosine receptor A2b (Homo sapiens, UniProt P29275); assay: biochemical
T8 sequence (P29275 whole entry): T3 sequence (whole entry)

[17] = biological target: Adenosine receptor A2a (Rattus norvegicus) (UniProt P30543); assay: Displacement of [3H]-CGS- 21680 from adenosine A2A receptor of rat striatal membranes at 100 uM; format: cell membranes; settings: Membrane
Sequence of Adenosine receptor A2a (Rattus norvegicus) (P30543 whole entry): as the sequence (P30543 whole entry) above

[18] = biological target: T9, Adenosine receptor A3 (Rattus norvegicus, UniProt P28647); assay: Displacement of [125I]- AB-MECA from rat adenosine A3 receptor expressed in CHO cells; format: cell-based
T9 sequence (P28647 whole entry): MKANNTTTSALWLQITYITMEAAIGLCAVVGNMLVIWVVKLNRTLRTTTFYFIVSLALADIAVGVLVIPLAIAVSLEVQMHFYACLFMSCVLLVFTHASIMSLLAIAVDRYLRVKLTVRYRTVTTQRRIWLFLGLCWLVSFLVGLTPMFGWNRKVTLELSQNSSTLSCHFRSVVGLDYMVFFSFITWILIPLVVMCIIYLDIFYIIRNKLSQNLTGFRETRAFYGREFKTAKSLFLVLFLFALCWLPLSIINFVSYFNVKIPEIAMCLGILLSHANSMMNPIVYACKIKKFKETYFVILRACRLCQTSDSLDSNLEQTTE

Work on `OC[C@@]12C[C@@H]1[C@@H](n1cnc3c(NC4CCCC4)nc(Cl)nc31)[C@H](O)[C@@H]2O` yielded a Max [1] of 96%, a Max [2] of 97% and a Displacement [3] of 27%. For the same compound, the Max [4] was 15%, the EC50 [5] was 31.2 nM and the Ki [6] was 466 nM. For the same compound, the Ratio [7] was 0.019, the EC50 [8] was over 10000 nM and the EC50 [9] was 145 nM. The Ki [10] was 3390 nM and the Ki [11] was 8.76 nM.
Compound `OC[C@H]1O[C@@H](n2cnc3c(NC4CCCC4)ncnc32)[C@H](O)[C@@H]1O` [N6-CYCLOPENTYLADENOSINE] has a Max [2] of 100%, a Max [4] of 100% and a Ki [10] of 857 nM.
With `Nc1ncnc2c1ncn2[C@H]1[C@H](O)[C@H](O)[C@]2(CO)C[C@H]12` the Displacement [12] was 35%, the Ki [13] was 404 nM and the Ratio [7] was 4.2. It also gave a Ki [11] of 1680 nM and a Ki [14] of 22500 nM.
In the case of `CCNC(=O)[C@H]1O[C@@H](n2cnc3c(N)ncnc32)[C@H](O)[C@@H]1O`, the Max [4] is reported as 100%.
`Nc1ncnc2c1ncn2[C@@]12C[C@H]1[C@H](CO)[C@@H](O)[C@H]2O` was tested, and the Displacement [15] was 15%, the Displacement [12] was 20% and the Ki [13] was 62500 nM. For the same compound, the Ratio [7] was over 1 and the Ki [14] was over 100000 nM.
In the case of `OC[C@@]12C[C@@H]1[C@@H](n1cnc3c(NCc4cccc(I)c4)ncnc31)[C@H](O)[C@@H]2O`, the Max [2] is reported as 86%, the Max [4] is reported as 45.3% and the EC50 [5] is reported as 218 nM. It also gave a Ki [6] of 4.13 nM, an EC50 [8] of 0.7 nM and a Ki [10] of 601 nM. For the same compound, the Ki [16] was 12100 nM.
For `OC[C@H]1C[C@@H](n2cnc3c(NCc4cccc(I)c4)ncnc32)[C@H](O)[C@@H]1O`, the Max [2] was 5%, the Max [4] was 14% and the Displacement [17] was under 10%. It also gave an EC50 [5] of over 10000 nM, a Ki [6] of 1960 nM and a Ratio [7] of 13. For the same compound, the EC50 [8] was over 10000 nM and the Ki [11] was 25900 nM.
In the case of `Nc1ncnc2c1ncn2[C@@H]1O[C@H](CO)[C@@H](O)[C@H]1O` [ADENOSINE], the Ki [18] is reported as 1000 nM.
`OC[C@H]1O[C@@H](n2cnc3c(NCc4cccc(I)c4)ncnc32)[C@H](O)[C@@H]1O` showed a Max [1] of 95%, a Max [2] of 91% and a Max [4] of 100%.
Work on `OC[C@@]12C[C@@H]1[C@@H](n1cnc3c(NCc4cccc(I)c4)nc(Cl)nc31)[C@H](O)[C@@H]2O` yielded a Max [1] of 48%, a Max [2] of 91% and a Max [4] of 22%. The EC50 [5] was 142 nM, the Ratio [7] was 63 and the EC50 [8] was 0.67 nM. The EC50 [9] was 684 nM, the Ki [10] was 732 nM and the Ki [11] was 141 nM. For the same compound, the Ki [16] was 41000 nM.
For `OC[C@@]12C[C@@H]1[C@@H](n1cnc3c(NC4CCCC4)ncnc31)[C@H](O)[C@@H]2O`, the Max [1] was 75%, the Max [2] was 102% and the Max [4] was 14%. The EC50 [5] was 21.5 nM, the Ki [6] was 170 nM and the Ratio [7] was 0.03. For the same compound, the EC50 [8] was over 10000 nM, the EC50 [9] was 100 nM and the Ki [10] was 6800 nM. It also gave a Ki [11] of 5.06 nM and a Ki [16] of 139000 nM.
